Experiments:
Type in all cases: cell-based, human
[1] = test system: L1 activity in LNCaP prostate cancer cells; assay: L1-EGFP retrotransposition reporter assay; conditions: carboplatin 5 μM or ENZ 10 μM, 5 days, FIG. 3A
Procedure: FIG. 3. […] (A) The effects of carboplatin (5 μM) or enzalutamide (ENZ, 10 μM) on L1 activity in LNCaP prostate cancer cells analyzed using a retrotransposition L1-EGFP reporter assay and IncuCyte S3 imaging equipped with a green fluorescence channel. Representative IncuCyte cell images are shown for untreated, ENZ, and carboplatin exposed LNCaP cells with green channel only (L1-EGFP) and phase contrast. The control plasmids used included two negative controls (L1Neg-EGFP and L1Mut-EGFP) and a positive control plasmid (L1Pos-EGFP). […] See also FIG. 8. (B) The effects of carboplatin or ENZ on ORF1 and ORF2 mRNA expression in LNCaP, VCaP, PC-3, and 22Rv1 prostate cancer cells. (C) L1 ORF1 and ORF2 mRNA levels from pre- and post-castration xenograft samples from LuCaP 77 and LuCaP 105 (23). […]
FIG. 8. […] (A) The effects of carboplatin (5 μM) or enzalutamide (ENZ, 10 μM) on L1 activity in LNCaP prostate cancer cells analyzed using a retrotransposition L1-EGFP reporter assay and IncuCyte S3 imaging system equipped with a green fluorescence channel. […]
Carboplatin or enzalutamide dissolved in DMSO and culture medium without FBS was added after a 24-hour initial incubation period. […] LNCaP prostate cancer cells were transfected with L1 plasmid or positive and negative control plasmids and treated with carboplatin (5 μM) or ENZ (10 μM) the day after transfection, and cells were monitored for five days. […]

[2] = test system: L1 ORF1 and ORF2 mRNA in LNCaP cells; assay: qPCR of L1 ORF1 and ORF2 mRNA; conditions: for ORF1 and ORF2 mRNA expression compared to control treated cells: 5 days, alone or in combination, AZT 50 μM
Procedure: Carboplatin or enzalutamide dissolved in DMSO and culture medium without FBS was added after a 24-hour initial incubation period. To control cells DMSO diluted in culture medium was added to a final concentration of 0.02%. […]
(§1) The isolation of RNA from cell lines was conducted using TriPure Isolation Reagent (Roche) following the manufacturer's protocol. The concentration of the RNA samples was measured using NanoDrop™ One/OneC Microvolume UV-Vis Spectrophotometer, followed by dilution of the samples to 1 μg/μl. The conversion of 1 μg of RNA to cDNA was done using Transcriptor First Strand cDNA Synthesis Kit (Roche) according to the manufacturer's instructions. The RT-PCR run was performed using LightCycler™ 480 SYBR Green I Master (Roche) and The LightCycler® 480 Real-Time PCR System (Roche) with 96-multiwell format. To allow separate analysis of ORF1 and ORF2, two sets of primer pairs were designed to target the L1RP-ORF1 (ORF1 mRNA thereafter), L1RP-ORF2 (ORF2 mRNA thereafter) and FANCI (Table 2). Each run included two biological and two technical replicates per treatment with fold change calculated based on the obtained Ct-values. Normalization was done against GAPDH values measured (Table 2).

[3] = test system: L1 ORF1 and ORF2 mRNA in VCaP cells; assay: qPCR of L1 ORF1 and ORF2 mRNA; conditions: for increase in ORF1 and ORF2 expression: 5-day treatment, carboplatin 5 μM or ENZ 10 μM, FIG. 3B
Procedure: Carboplatin or enzalutamide dissolved in DMSO and culture medium without FBS was added after a 24-hour initial incubation period. To control cells DMSO diluted in culture medium was added to a final concentration of 0.02%. LNCaP prostate cancer cells were transfected with L1 plasmid or positive and negative control plasmids and treated with carboplatin (5 μM) or ENZ (10 μM) the day after transfection, and cells were monitored for five days.
as §1

[4] = test system: LNCaP cells; assay: Cell proliferation assay (siRNA knockdown, cell confluence); conditions: 10 μM carboplatin
Procedure: For cell proliferation assays, cells were reverse transfected with 25 nM siRNAs against FANCI (Dharmacon, ON-TARGETplus SMARTpool, L-022320-01-0005) or Scr control (Dharmacon, non-targeting pool), using OPTI-MEM and Lipofectamine 2000 transfection reagent (Invitrogen) in four biological replicates in a 384-well plate. LNCaP cells were plated on the wells (1000 cells/well) in antibiotic free regular growth medium. After 48 h, vehicle control (DMSO) or Carboplatin dilutions were added into wells in appropriate concentrations diluted in FBS free medium and the cell confluence was monitored for five days using live-cell imaging (IncuCyte S3, Sartorius). Cell confluence was determined by automatic counting using IncuCyte S3 Image analysis tools. Cell confluence (confluence mask) on each time point was calculated based on phase-contrast imaging with a minimum area filter of 150 μm2, segmentation adjustment of 1.0, 100 μm2 cleanup and size adjust of −2 pixels. Confluence curves were compared for statistical differences between treatment conditions at each timepoint using t-test.

[5] = test system: L1 ORF1p in LNCaP cells; assay: Western blot of L1 ORF1 protein; conditions: carboplatin alone, or carboplatin with further addition of AZT, FIG. 9D
Procedure: FIG. 9. Further validation of L1 activation and suppression. (A) L1 mRNA levels from pre- and post-castration samples from LuCaP 77 and LuCaP 105 (16). […] Asterisks indicate significant differences between treatment conditions based on t-test (*, p<0.05; **, p<0.01; ***, p<0.001).
Whole cell lysates were prepared using SDS sample buffer (66 mM Tris-HCl pH 6.8, 13% Glyserol, 2.1% SDS and 0.01% Bromophenol Blue) with protease inhibitor added (cOmplete™ Protease Inhibitor Cocktail, Roche).

Compound	L1 retrotransposition (L1-EGFP reporter, green fluorescence) [1]	ORF1 and ORF2 mRNA induction ([2]; 25-day incubation, ENZ alone or with AZT, FIG. 3D) [fold]	ORF1 and ORF2 mRNA expression compared to control treated cells ([2]; FIG. 3D)	increase in ORF1 and ORF2 expression [3] [fold]	proliferation of siFANCI LNCaP cells on carboplatin exposure [4]	increase in ORF1 and ORF2 expression ([2]; 5-day treatment, carboplatin 5 μM, FIG. 3B)	level of L1 ORF1p (Western blot) [5]	ORF1 and ORF2 mRNA expression compared to control treated cells ([3]; 5 days, alone or in combination, AZT 50 μM, FIG. 3D) [fold]
CNC(=O)c1ccc(N2C(=S)N(c3ccc(C#N)c(C(F)(F)F)c3)C(=O)C2(C)C)cc1F [ENZ, enzalutamide]	relative increase in L1-EGFP reporter, below statistical significance	8	no significant changes	5.5				
N.N.O=C([O-])C1(C(=O)[O-])CCC1.[Pt+2] [carboplatin]	L1 retrotransposition indicated by green fluorescence appeared		approximately 4 fold	7	significantly decreased proliferation	approximately 4 fold	significantly increased	~9
